The text below walks through data of paper PMC9782245, “Synthesis and Structural Optimization of 2,7,9-Trisubstituted purin-8-ones as FLT3-ITD Inhibitors” (International Journal of Molecular Sciences, 2022).

The test system of one test is MOLM13 cells. Put plainly: Flow cytometric cell cycle analysis, MOLM13. Format: cell-based. The conditions noted are these: increasing doses, 24 h. The protocol: (§1) Finally, we performed flow cytometric analysis with different concentrations of 15a in MV4-11 and MOLM13 (another FLT-ITD positive cell line) and K562 cell lines treated for 24 h (Figure 5).
(§2) Asynchronously growing cells were seeded into a 96-well plate and, after a preincubation period, treated with tested compounds for 24 h. The treated cells were stained directly (or after trypsinization for the adherent cells) with the 5× staining solution (17 mM trisodium citrate dihydrate, 0.5% IGEPAL CA-630, 7.5 mM spermine tetrahydrochloride, and 2.5 mM Tris; pH 7.6 containing […] propidium iodide). After the staining, DNA content was analyzed using flow cytometry using a 488 nm laser (BD FACS Verse with software BD FACSuite^TM, version 1.0.6). Cell cycle distribution was analyzed using ModFit LT (Verity Software House, version 5.0).

The target in another test is T1, Abl (Homo sapiens, UniProt P00519).
T1 construct: purchased Eurofins Discovery (France)
T1 sequence (P00519 whole entry): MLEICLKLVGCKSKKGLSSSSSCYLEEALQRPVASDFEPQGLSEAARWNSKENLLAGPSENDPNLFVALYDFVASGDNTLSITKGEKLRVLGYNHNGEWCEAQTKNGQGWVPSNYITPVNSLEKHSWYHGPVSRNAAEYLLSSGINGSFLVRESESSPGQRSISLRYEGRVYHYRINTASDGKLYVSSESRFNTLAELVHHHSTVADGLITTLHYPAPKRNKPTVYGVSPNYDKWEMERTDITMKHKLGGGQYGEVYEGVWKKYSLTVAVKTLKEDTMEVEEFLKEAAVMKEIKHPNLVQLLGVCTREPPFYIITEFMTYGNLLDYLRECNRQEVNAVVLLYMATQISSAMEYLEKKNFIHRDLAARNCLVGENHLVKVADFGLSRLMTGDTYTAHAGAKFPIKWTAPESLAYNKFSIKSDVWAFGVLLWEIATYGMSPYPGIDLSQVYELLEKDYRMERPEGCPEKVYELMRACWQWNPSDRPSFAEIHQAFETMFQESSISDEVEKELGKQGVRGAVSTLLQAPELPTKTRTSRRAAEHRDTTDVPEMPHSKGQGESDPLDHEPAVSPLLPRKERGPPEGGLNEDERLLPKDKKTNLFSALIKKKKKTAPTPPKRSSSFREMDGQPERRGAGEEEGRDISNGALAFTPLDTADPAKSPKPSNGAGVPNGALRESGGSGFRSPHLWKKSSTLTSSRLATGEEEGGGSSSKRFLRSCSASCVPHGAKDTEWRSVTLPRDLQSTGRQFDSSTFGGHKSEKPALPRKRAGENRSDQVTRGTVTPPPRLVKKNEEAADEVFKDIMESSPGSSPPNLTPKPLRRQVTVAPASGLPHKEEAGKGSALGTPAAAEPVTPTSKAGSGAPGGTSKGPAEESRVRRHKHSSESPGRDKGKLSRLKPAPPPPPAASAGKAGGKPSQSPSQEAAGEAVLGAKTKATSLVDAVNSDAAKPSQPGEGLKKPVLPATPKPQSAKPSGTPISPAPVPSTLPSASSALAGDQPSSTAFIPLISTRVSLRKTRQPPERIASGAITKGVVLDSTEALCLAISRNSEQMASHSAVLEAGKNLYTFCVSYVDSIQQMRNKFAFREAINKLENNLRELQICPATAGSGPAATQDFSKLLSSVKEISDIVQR
Kind of test: Kinase selectivity panel at 1 µM (Eurofins), Abl. Format: biochemical. The settings on record: read-out: residual enzyme activity Abl. Here is the method:
(§3) Three representative compounds (14d, 14e, and 15a) were profiled in a 1 µM concentration against 30 kinases that were selected as known off-targets of approved CDK4/6 inhibitors. […] Additional sensitive kinases include STK16, EphA1, MEKK2, SRC, and MER (≤10% of residual enzyme activities), which are not targets of the structurally similar CDK4/6 inhibitor, trilaciclib. We also screened compound 15a, an analogue of 14d, bearing isopropyl at position 7 of the purine instead of the methyl group. This change rapidly diminished the potency against CDK4 (dropped to 90% of residual enzyme activity), but the preference for FLT3 remained (1st rank) (Figure 2).
(§4) CDK/cyclin complexes and FLT3 kinases were assayed as previously described. Protein kinase selectivity was evaluated at a single concentration (1 µM) by screening against 30 enzymes at Eurofins Discovery (France).

The test system of a further test is MV4-11 cells. Put plainly: Flow cytometric cell cycle analysis, MV4-11. Format: cell-based, Human. The settings on record: increasing doses, 24 h. The protocol: (§5) FLT3 inhibition causes G1-cell cycle arrest in FLT3-dependent cell lines such as MV4-11; we, therefore, performed flow cytometric analysis to evaluate cell cycle changes in MV4-11 and K562 cell lines treated with 200 nM compounds for 24 h. […] Specifically, 18 compounds arrested >85% of cells in the G1 phase, which is >30% cells in the G1 phase of the cell cycle than in control cells (Figure 4A).
as §1
as §2, with “5.0). Palbociclib, trilaciclib, and quizartinib were purchased from MedChemExpress, Monmouth Junction, NJ, USA.” for “5.0).”
(In general: A flow cytometer gives signals particle by particle.)

The target in a further test is T2, Lyn (Homo sapiens, UniProt P07948).
T2 construct: purchased Eurofins Discovery (France)
T2 sequence (P07948 whole entry): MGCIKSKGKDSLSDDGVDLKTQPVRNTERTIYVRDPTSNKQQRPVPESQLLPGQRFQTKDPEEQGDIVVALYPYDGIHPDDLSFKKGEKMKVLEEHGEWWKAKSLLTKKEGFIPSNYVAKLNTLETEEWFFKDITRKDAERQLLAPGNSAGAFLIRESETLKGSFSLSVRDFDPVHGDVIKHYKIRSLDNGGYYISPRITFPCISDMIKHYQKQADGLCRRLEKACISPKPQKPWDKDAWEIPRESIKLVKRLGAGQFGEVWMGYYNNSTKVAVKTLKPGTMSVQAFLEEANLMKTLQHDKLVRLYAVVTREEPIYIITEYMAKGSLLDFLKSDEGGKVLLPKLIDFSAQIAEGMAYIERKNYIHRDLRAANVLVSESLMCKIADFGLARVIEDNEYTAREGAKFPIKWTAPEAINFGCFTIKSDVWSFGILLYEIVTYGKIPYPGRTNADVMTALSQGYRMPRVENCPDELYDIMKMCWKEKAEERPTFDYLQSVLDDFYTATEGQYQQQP
Put plainly: Kinase selectivity panel at 1 µM (Eurofins), Lyn. The conditions noted are these: read-out: residual enzyme activity Lyn. Format: biochemical. The protocol:
as §3, §4

A further test relates to K562 cells. Put plainly: Flow cytometric cell cycle analysis, K562. Format: cell-based, Human. The conditions noted are these: 24 h. The protocol:
as §5, §1
as §2, with “5.0). Palbociclib, trilaciclib, and quizartinib were purchased from MedChemExpress, Monmouth Junction, NJ, USA.” for “5.0).”

For the next test, the target named is T3, MER (Homo sapiens, UniProt Q12866).
T3 construct: purchased Eurofins Discovery (France)
T3 sequence (Q12866 21-999): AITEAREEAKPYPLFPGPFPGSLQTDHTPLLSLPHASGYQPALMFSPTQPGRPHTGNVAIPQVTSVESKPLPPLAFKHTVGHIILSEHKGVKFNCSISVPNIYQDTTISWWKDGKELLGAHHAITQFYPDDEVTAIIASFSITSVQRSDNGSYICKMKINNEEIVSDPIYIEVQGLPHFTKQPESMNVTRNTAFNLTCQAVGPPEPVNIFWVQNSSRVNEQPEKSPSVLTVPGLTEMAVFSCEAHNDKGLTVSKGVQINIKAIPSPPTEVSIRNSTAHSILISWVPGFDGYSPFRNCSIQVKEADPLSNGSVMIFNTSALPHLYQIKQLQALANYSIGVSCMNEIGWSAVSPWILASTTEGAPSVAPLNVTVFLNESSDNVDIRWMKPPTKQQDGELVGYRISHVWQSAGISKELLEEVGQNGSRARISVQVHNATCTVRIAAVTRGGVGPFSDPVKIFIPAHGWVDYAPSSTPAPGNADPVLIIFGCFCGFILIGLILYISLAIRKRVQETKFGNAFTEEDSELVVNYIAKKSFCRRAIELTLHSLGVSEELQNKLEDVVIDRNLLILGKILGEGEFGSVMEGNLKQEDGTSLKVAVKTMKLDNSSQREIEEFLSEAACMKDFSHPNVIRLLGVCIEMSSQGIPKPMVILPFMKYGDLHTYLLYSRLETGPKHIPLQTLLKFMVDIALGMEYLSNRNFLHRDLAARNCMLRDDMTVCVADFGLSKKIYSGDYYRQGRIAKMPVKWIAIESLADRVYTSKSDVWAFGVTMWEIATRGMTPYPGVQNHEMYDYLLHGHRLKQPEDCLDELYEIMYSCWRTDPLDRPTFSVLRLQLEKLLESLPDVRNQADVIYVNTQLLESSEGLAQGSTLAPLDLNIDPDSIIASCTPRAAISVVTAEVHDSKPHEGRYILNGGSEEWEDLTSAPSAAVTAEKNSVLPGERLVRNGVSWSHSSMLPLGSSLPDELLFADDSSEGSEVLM
Put plainly: Kinase selectivity panel at 1 µM (Eurofins), MER. The conditions noted are these: read-out: residual enzyme activity MER. It is filed as biochemical. Here is the method:
as §3, §4

Take `CC(C)n1c(=O)n(C2CCCC2)c2nc(Nc3ccc(N4CCNCC4)cc3)ncc21` [15a, 9-cyclopentyl-7-isopropyl-2-((4-(piperazin-1-yl)phenyl)amino)-7,9-dihydro-8H-purin-8-one]: the “cells in the G1 phase, MOLM13” value in the test on MOLM13 cells is reported as “up to 90%”. Further, the remaining activity at 1 µM at Abl and on Lyn was ≤ 10% in each case. For the same compound, in the test with MV4-11 cells, the “cells in the G1 phase, MV4-11” value is on record as “up to 90%”. The “cell cycle changes in K562” value in the test on K562 cells (different concentrations) is given as “did not show any changes”.
For the compound `Cn1c(=O)n(C2CCCC2)c2nc(Nc3ccc(N4CCNCC4)cc3)ncc21` [14d], at MER, the remaining activity at 1 µM was ≤ 10%.
As for `Cn1c(=O)n(C2CCCCC2)c2nc(Nc3ccc(N4CCNCC4)cc3)ncc21` [14e], on MER, the remaining activity at 1 µM was ≤ 10%. Moreover, in the test with K562 cells (200 nM), the “effect on cell cycle (G1 arrest) in K562” value was “moderate G1 block”.
